Tests used:
[1] = Aerosol performance by Next Generation Impactor (NGI) from multidose dry powder inhaler; assay type: physicochemical; details: Example 3 powder formulation; for Mid Fine particle Fraction: 2.0 to 5.0 microns; for Delivered Dose: multidose DPI of WO 2004/012801, 3 doses; for Mid Fine Particle Mass: particle size between 2.0 and 5.0 microns; for Fine Particle Mass: particle size equal to or lower than 5.0 microns; for Fine Particle Fraction: ratio fine particle mass to delivered dose
Text: After aerosolization of 3 doses from the inhaler device, the NGI apparatus was disassembled and the amounts of drug deposited in the stages were recovered by washing with a solvent mixture and then quantified by High-Performance Liquid Chromatography (HPLC). […] (v) the fine particle fraction (FPF) which is the ratio between the fine particle mass and the delivered dose; and (vi) the MMAD.

[2] = micronized active ingredient as used in Example 3
Protocol: The size of the particles active is determined by measuring the characteristic equivalent sphere diameter, known as volume diameter, by laser diffraction.
Microparticles as obtained in Example 2 were used. […] Beclometasone dipropionate (BDP) having the following particle size was used: d(v0.1)=0.7 micron; d(v0.5)=1.5 micron; and d(v0.9)=2.8 micron.

SMILES: CCC(=O)OCC(=O)[C@@]1(OC(=O)CC)[C@@H](C)C[C@H]2[C@@H]3CCC4=CC(=O)C=C[C@]4(C)[C@@]3(Cl)[C@@H](O)C[C@@]21C [BDP, beclometasone dipropionate]
- Extrafine Particle Fraction <1 μm [1]: 13.9%
- Extrafine Particle Fraction <2 μm [1]: 32.1%
- Extrafine Particle Mass <1 μm [1]: 12.4 µg
- Extrafine Particle Mass <2 μm [1]: 28.5 µg
- MMAD [1]: 1.6 μm
- Mid Fine particle Fraction [1]: 17.1%
- Delivered Dose [1]: 88.5 µg
- Mid Fine Particle Mass [1]: 15.2 µg
- Fine Particle Mass [1]: 43.6 µg
- Fine Particle Fraction [1]: 49.3%
- d(v0.1) [2]: 0.7 micron
- d(v0.5) [2]: 1.5 micron
- d(v0.9) [2]: 2.8 micron

SMILES: C[N+]1(C)CCC(OC(=O)C(O)(c2ccccc2)C2CCCC2)C1 (racemic) [GB, glycopyrronium bromide]
- Extrafine Particle Fraction <1 μm [1]: 9.8%
- Extrafine Particle Fraction <2 μm [1]: 26.4%
- Extrafine Particle Mass <1 μm [1]: 1.1 µg
- Extrafine Particle Mass <2 μm [1]: 2.9 µg
- MMAD [1]: 1.9 μm
- Mid Fine particle Fraction [1]: 21.6%
- Delivered Dose [1]: 11.1 µg
- Mid Fine Particle Mass [1]: 2.4 µg
- Fine Particle Mass [1]: 5.4 µg
- Fine Particle Fraction [1]: 48.1%

— patent publication US10786450B2, “Process for preparing a dry powder formulation comprising an anticholinergic, a corticosteroid and a beta-adrenergic” (CHIESI FARMACEUTICI S.p.A., priority 2017, dated 2020)
